Earlier results in patent US20040266821A1, “Acylated piperidine derivatives as melanocortin-4 receptor agonists” (priority 2001, published 2004).

Legend:
[1] = not given; remark: listed apart in the source
[2] = oral route

Compound | duration of effect (after an oral dose) | onset of action (after an oral dose) | share of men/patients with adequate response (oral) | duration of action ([1]; in vivo) | time to onset of erection ([1]; in vivo) | response rate ([1]; injected intramuscularly or subcutaneously) | absorption into the systemic circulation [2]
Cc1ccc(N(CC2=NCCN2)c2cccc(O)c2)cc1 [phentolamine] | 2 h | 5 to 30 min | 35-40% | – | – | – | –
Ac-Nle-c[Asp-His-DPhe-Arg-Trp-Lys]-NH2 [MT-II] | – | – | – | approximately 2.5 hours | 10 to 20 min | 75% | not absorbed into the systemic circulation
